Each structure is given as a SMILES string.

In general, IC50 refers to the concentration needed to halve the response being measured.

For one assay, the target named is human CD38 (Homo sapiens (Human), UniProt P28907). Nature of the assay: NAD+ cyclase activity assay with human recombinant CD38 protein. It is filed as biochemical. Particulars: 1.9 nM human CD38, 15.8 μM e-NAD substrate, fluorescence read-out. On the procedure:
(§1) Example 5: NAD^+ Cydase Activity Assay with Human or Mouse Recombinant CD38 Protein
(§2) The following assay was used to determine the ability of compounds of the invention to inhibit the hydrolysis of NAD^+ by the human or mouse enzyme, CD38.
(§3) Reaction buffer: 40 mM HEPES/NaOH pH 7.5, 250 mM sucrose, 0.01% Tween
(§4) Final concentrations: 0.6 nM mouse CD38 (4947-AC, Bio-Techne GmbH) 1.9 nM human CD38 (AVI2404, Bio-Techne GmbH)
(§5) Substrate: 15.8 μM Nicotinamide 1,N6-ethenoadenine dinucleotide (E-NAD)
(§6) Read-out: Fluorescence intensity (extinction 300 nm/emission 410 nm)
(§7) Required reaction buffer, required CD38 concentration in reaction buffer and required e-NAD concentration in reaction buffer were prepared. Thereafter, 8 μL of CD38 in reaction buffer were added to High Control and compound concentration wells in 384 well plate (Corning #4514, 384 well, nonbinding surface, low volume, round bottom) and 8 μL of reaction buffer to Low Control. Compound dilutions were transferred via pintool technology that transfers 42.5 nL compound dilutions (12-point dose-response with factor three dilutions in 100% DMSO) well-to-well. Plate was subsequently shaken for 15 s at 1450 rpm and sealed for incubation for 30 min at room temperature. Thereafter, 2 μL of e-NAD in reaction buffer were added with Integra Voyager. After shaking for 15 s at 1450 rpm, plate was sealed, and assay signal was measured continuously with PHERAstar® fluorescence intensity module (extinction 300 nm/emission 410 nm).
(§8) Dose-response curves were constructed using twelve-point factor three dilutions in triplicates per plate. High control (full enzyme activity) was set to assay signal of CD38 and e-NAD in presence of vehicle (DMSO) and Low control (full enzyme inhibition) was set to assay signal of e-NAD and vehicle (DMSO) in absence of CD38. For data analysis, fluorescent signal of traces corresponding to each compound concentration and High and Low control was monitored over time. Each run, High Control (full enzyme activity) was fitted to Linear equation via GraphPad Prism to determine CD38 activity from the slope and determine the time interval of linear phase of reaction to account for minor fluctuations. Thereafter, slopes of all compound concentrations were determined via fitting to same linear equation (GraphPad Prism) over the same time interval as determined for High control. Percentage inhibition was calculated via normalization to High and Low Control via the equation: %−inhibition=100*(1−((Sample−Low control)/(High control−Low control))) Half maximal inhibitory concentration (IC50) values are yielded from the inflection point of the corresponding curve by fitting of resulting percentage inhibition values to standard equation (4 Parameter Logistic Model or Sigmoidal Dose-Response Model) via Excel Fit. Unless otherwise stated, fitting of curves was fixed to 100%-inhibition and unlocked for 0%-inhibition.

For the next assay, the target named is mouse CD38 (Mus musculus (Mouse), UniProt P56528). The assay can be described thus: NAD+ cyclase activity assay with mouse recombinant CD38 protein. It is filed as biochemical. Particulars: 0.6 nM mouse CD38, 15.8 μM e-NAD substrate, fluorescence read-out. The procedure:
as §1, §2, §3, §4, §5, §6, §7, §8

Chain of human CD38 (P28907 whole entry): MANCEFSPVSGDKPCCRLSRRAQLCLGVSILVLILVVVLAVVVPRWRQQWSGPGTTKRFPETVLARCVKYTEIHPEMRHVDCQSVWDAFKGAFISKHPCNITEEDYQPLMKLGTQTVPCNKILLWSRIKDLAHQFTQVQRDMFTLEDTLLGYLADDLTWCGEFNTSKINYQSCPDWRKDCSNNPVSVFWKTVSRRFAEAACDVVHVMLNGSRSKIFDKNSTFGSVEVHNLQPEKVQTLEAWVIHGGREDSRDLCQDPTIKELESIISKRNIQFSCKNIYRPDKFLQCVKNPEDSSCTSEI
Chain of mouse CD38 (P56528 whole entry): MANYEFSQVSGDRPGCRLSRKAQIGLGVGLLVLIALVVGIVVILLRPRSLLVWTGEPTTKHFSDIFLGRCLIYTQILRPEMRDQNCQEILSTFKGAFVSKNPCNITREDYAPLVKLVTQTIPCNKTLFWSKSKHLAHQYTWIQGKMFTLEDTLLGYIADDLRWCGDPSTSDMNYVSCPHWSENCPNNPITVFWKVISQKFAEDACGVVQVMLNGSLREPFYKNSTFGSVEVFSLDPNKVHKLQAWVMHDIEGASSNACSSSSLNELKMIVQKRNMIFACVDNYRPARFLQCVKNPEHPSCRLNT

With `Cc1cc(C(=O)N[C@@H]2CCC(=O)NC2=O)nc(-n2ccnc2)c1` [Compound 63A, (R)—N-(2,6-Dioxopiperidin-3-yl)-6-(1H-imidazol-1-yl)-4-methylpicolinamide], the values for the 50% inhibitory concentration (IC50) on human CD38 and at mouse CD38 were above 1000 nM and 10 to 100 nM, respectively.
Taken in the same sequence, the figures for `Cc1cc(C(=O)N[C@@H]2CCC(C)(C)OC2)nc(-n2ccnc2)c1` [Compound 64A, (R)—N-(6,6-Dimethyltetrahydro-2H-pyran-3-yl)-6-(1H-imidazol-1-yl)-4-methylpicolinamide] were 30 to 100 nM and 1 to 10 nM.
Taken in the same sequence, the figures for `Cc1cc(C(=O)N[C@H]2CCC(C)(C)OC2)nc(-n2ccnc2)c1` [Compound 65A, (S)—N-(6,6-Dimethyltetrahydro-2H-pyran-3-yl)-6-(1H-imidazol-1-yl)-4-methylpicolinamide] were 100 to 1000 nM and 1 to 10 nM.
Taken in the same sequence, the figures for `Cc1cc(C(=O)N[C@H]2COCC(F)(F)C2)nc(-n2ccnc2)c1` [Compound 66A, (R)—N-(5,5-Difluorotetrahydro-2H-pyran-3-yl)-6-(1H-imidazol-1-yl)-4-methylpicolinamide] were 30 to 100 nM and below 1 nM.
Consider `Cc1cc(C(=O)N[C@@H]2CCS(=O)(=O)C2)nc(-n2ccnc2)n1` [Compound 68A, (R)—N-(1,1-Dioxidotetrahydrothiophen-3-yl)-2-(1H-imidazol-1-yl)-6-methylpyrimidine-4-carboxamide], for which the IC50 at human CD38 was below 30 nM; at mouse CD38 it was below 1 nM.
In the case of `Cc1cc(C(=O)N[C@@H]2CCCOC2)nc(-n2ccnc2)n1` [Compound 69A, (R)-2-(1H-Imidazol-1-yl)-6-methyl-N-(tetrahydro-2H-pyran-3-yl)pyrimidine-4-carboxamide], the IC50 on human CD38 was below 30 nM; at mouse CD38 it was below 1 nM.
Taken in the same sequence, the figures for `Cc1cc(C(=O)N[C@H]2COCCC2(F)F)nc(-n2ccnc2)c1` [Compound 70A, (S)—N-(4,4-Difluorotetrahydro-2H-pyran-3-yl)-6-(1H-imidazol-1-yl)-4-methylpicolinamide] were 30 to 100 nM and 1 to 10 nM.
`Cc1cc(C(=O)N[C@@H]2COCCC2(F)F)nc(-n2ccnc2)c1` [Compound 71A, (R)—N-(4,4-Difluorotetrahydro-2H-pyran-3-yl)-6-(1H-imidazol-1-yl)-4-methylpicolinamide]: the half-inhibitory concentration (IC50) at human CD38 is 30 to 100 nM; at mouse CD38, below 1 nM.
For `Cc1cc(C(=O)NC2CCN(S(=O)(=O)C3CCOC3)CC2)nc(-n2ccnc2)c1` (stereo not drawn) [Compound 72A, 6-(1H-Imidazol-1-yl)-4-methyl-N-(1-((tetrahydrofuran-3-yl)sulfonyl)piperidin-4-yl)picolinamide], the IC50 at human CD38 is below 30 nM; at mouse CD38 it was below 1 nM.
Taken in the same sequence, the figures for `CS(=O)(=O)N1CCC(NC(=O)c2ccnc(-n3ccnc3)n2)CC1` [Compound 73A, 2-(1H-Imidazol-1-yl)-N-(1-(methylsulfonyl)piperidin-4-yl)pyrimidine-4-carboxamide] were below 30 nM and 1 to 10 nM.
On to `O=C(N[C@@H]1CCS(=O)(=O)C1)c1ccnc(-n2ccnc2)n1` [Compound 74A, (R)—N-(1,1-Dioxidotetrahydrothiophen-3-yl)-2-(1H-imidazol-1-yl)pyrimidine-4-carboxamide], for which the IC50 at human CD38 is below 30 nM; on mouse CD38, 1 to 10 nM.
Taken in the same sequence, the figures for `CS(=O)(=O)N1CCC(NC(=O)c2cc(C(F)(F)F)nc(-n3ccnc3)n2)CC1` [Compound 75A, 2-(1H-Imidazol-1-yl)-N-(1-(methylsulfonyl)piperidin-4-yl)-6-(trifluoromethyl)pyrimidine-4-carboxamide] were 30 to 100 nM and 1 to 10 nM.
`O=C(N[C@@H]1CCCOC1)c1cc(C(F)(F)F)nc(-n2ccnc2)n1` [Compound 76A, (R)-2-(1H-Imidazol-1-yl)-N-(tetrahydro-2H-pyran-3-yl)-6-(trifluoromethyl)pyrimidine-4-carboxamide]: the half-inhibitory concentration (IC50) at human CD38 lay in the range of 30 to 100 nM; on mouse CD38, 1 to 10 nM.
Take `O=C(N[C@@H]1CCS(=O)(=O)C1)c1cc(C(F)(F)F)nc(-n2ccnc2)n1` [Compound 77A, (R)—N-(1,1-Dioxidotetrahydrothiophen-3-yl)-2-(1H-imidazol-1-yl)-6-(trifluoromethyl)pyrimidine-4-carboxamide]: the results for the IC50 on human CD38 and at mouse CD38 were 30 to 100 nM and 1 to 10 nM, respectively.
Turning to `O=C(N[C@@H]1CCS(=O)(=O)C1)c1cc(C(F)(F)F)cc(-n2ccnc2)n1` [Compound 78A, (R)—N-(1,1-Dioxidotetrahydrothiophen-3-yl)-6-(1H-imidazol-1-yl)-4-(trifluoromethyl)picolinamide], the IC50 was below 30 nM at human CD38 and 1 to 10 nM at mouse CD38.
Consider `Cc1ccc(-n2ccnc2)nc1C(=O)NC1CCN(S(C)(=O)=O)CC1` [Compound 79A, 6-(1H-Imidazol-1-yl)-3-methyl-N-(1-(methylsulfonyl)piperidin-4-yl)picolinamide], for which the IC50 on human CD38 fell in the range of 100 to 1000 nM; at mouse CD38, 10 to 100 nM.
Turning to `O=C(N[C@@H]1CCCOC1)c1ccnc(-n2ccnc2)n1` [Compound 80A, (R)-2-(1H-Imidazol-1-yl)-N-(tetrahydro-2H-pyran-3-yl)pyrimidine-4-carboxamide], the IC50 was below 30 nM on human CD38 and 1 to 10 nM on mouse CD38.
Regarding `Cc1ccc(-n2ccnc2)nc1C(=O)N[C@@H]1CCCOC1` [Compound 81A, (R)-6-(1H-Imidazol-1-yl)-3-methyl-N-(tetrahydro-2H-pyran-3-yl)picolinamide], the values for the concentration for half-maximal inhibition (IC50) on human CD38 and at mouse CD38 were 100 to 1000 nM and 10 to 100 nM, respectively.
`CS(=O)(=O)N1CCC(NC(=O)c2cc(C(F)(F)F)cc(-n3ccnc3)n2)CC1` [Compound 82A, 6-(1H-Imidazol-1-yl)-N-(1-(methylsulfonyl)piperidin-4-yl)-4-(trifluoromethyl)picolinamide]: the half-maximal inhibitory concentration (IC50) is below 30 nM at human CD38 and 1 to 10 nM on mouse CD38.
For `Cc1cc(C(=O)N[C@@H]2CCCN(C3COC3)C2)nc(-n2ccnc2)c1` [Compound 83A, (R)-6-(1H-Imidazol-1-yl)-4-methyl-N-(1-(oxetan-3-yl)piperidin-3-yl)picolinamide], the results for the IC50 on human CD38 and on mouse CD38 were above 1000 nM and 10 to 100 nM, respectively.
As for `Cc1cc(C(=O)N[C@H]2CCCS(=O)(=O)C2)nc(-n2ccnc2)c1` [Compound 84A, (S)—N-(1,1-Dioxidotetrahydro-2H-thiopyran-3-yl)-6-(1H-imidazol-1-yl)-4-methylpicolinamide], the figures for the concentration for half-maximal inhibition (IC50) at human CD38 and on mouse CD38 were 100 to 1000 nM and 10 to 100 nM, respectively.
As to `Cc1cc(C(=O)N[C@H]2CCCN(C)C2=O)nc(-n2ccnc2)c1` [Compound 85A, (S)-6-(1H-Imidazol-1-yl)-4-methyl-N-(1-methyl-2-oxopiperidin-3-yl)picolinamide], the concentration for half-maximal inhibition (IC50) on human CD38 lay within 100 to 1000 nM; at mouse CD38, 10 to 100 nM.
Taken in the same sequence, the figures for `Cc1cc(C(=O)N[C@@H]2CCS(=O)(=O)C2)nc(-n2ccnc2)c1` [Compound 86A, (R)—N-(1,1-Dioxidotetrahydrothiophen-3-yl)-6-(1H-imidazol-1-yl)-4-methylpicolinamide] were below 30 nM and 1 to 10 nM.
`Cc1cc(C(=O)NC2CCN(S(=O)(=O)C3COC3)CC2)nc(-n2ccnc2)c1` [Compound 87A, 6-(1H-Imidazol-1-yl)-4-methyl-N-(1-(oxetan-3-ylsulfonyl)piperidin-4-yl)picolinamide]: the half-maximal inhibitory concentration (IC50) was below 30 nM at human CD38 and 1 to 10 nM at mouse CD38.

The values are drawn from patent publication US20250326739A1, “CD38 MODULATORS AND USES THEREOF” (Aeovian Pharmaceuticals, Inc., priority 2022, published 2025).
